According to patent US12226379B2, “Highly sustainable compositions for modulation of gene expression in human skin, and methods of production thereof” (Visolis Technologies, Inc., priority 2022, dated 2025):

Key:
Type in all cases: cell-based
[1] = test system: normal human epidermal keratinocytes (NHEKs) cells; test: Hyaluronic acid level in medium (ELISA, normalized to protein level); conditions: FIG. 15; for increase in hyaluronic acid levels: 48 hours, p<0.05
Experimental: Impact of MVL on hyaluronic acid, was conducted on keratinocytes. Hyaluronic acid is a crucial component of the skin. Impact of MVL on conversion of hyaluronic acid was evaluated. Hyaluronic acid tests were conducted on normal human epidermal keratinocytes (NHEKs) cells. Test samples contained 0-0.25% of highly sustainable, high-purity MVL by weight in a phosphate-buffered saline (PBS) solution. Negative control samples contained PBS only. Hyaluronic acid level in the medium was subsequently measured at 24 hours and 48 hours via ELISA and normalized to the protein level in the NHEK cells.

[2] = test system: EpiSkin-LM 3-dimensional in-vitro human skin model; test: Gene expression test (DNA microarray, mRNA) on the EpiSkin-LM reconstructed 3D skin model
Experimental: Gene expression tests were conducted on EpiSkin-LM™, a commercially available 3-dimensional in-vitro human skin model composed of normal human skin cells in a collagen matrix. Test samples contained either 0.5% or 1.0% of highly sustainable, high-purity MVL by weight in a phosphate-buffered saline (PBS) solution. Negative control samples contained PBS only.
Reconstructed 3D skin epidermal models (EpiSkin-LM™) were pre-incubated with 5 mL of maintenance medium for 24 hours per manufacturer instruction. 2 mL of the test samples or negative controls were applied on the top of the epidermis. The treated models were incubated for 24 hours. After incubation, the models were rinsed with PBS, then treated again with 2 mL test samples or the negative control and incubated an additional 24 hours.
After the second incubation, mRNA was extracted from the models by miRNeasy® Mini Kit (QIAGEN). mRNA expression level in the model was measured by a Genopal® DNA microarray chip. Modulation of gene expression level was expressed as the ratio of mRNA transcripts in the test-sample treated models to mRNA transcripts in the negative control models. Positive numbers indicated an increase in gene expression, and negative numbers indicated a decrease in gene expression relative to the negative control.

[3] = test system: normal human epidermal keratinocytes cells; test: Cortisol production test (conversion of cortisone to cortisol, Alpha LISA); conditions: FIG. 13
Experimental: Impact of MVL on metabolism, specifically cortisol production, was conducted on keratinocytes. Generally, 11β-HSD1 (Hydroxysteroid Dehydrogenase Type 1) converts costisone to cortisol, which then induces stress response. Impact of MVL on conversion of cortisone to cortisol was evaluated. Cortisol production tests were conducted on normal human epidermal keratinocytes cells. […] Negative control samples contained PBS only. Cortisol production was subsequently measured via the Alpha LISA system.

[4] = compositions containing 0.1 to 1.0 weight percent, human epithelial cells

For C[C@@]1(O)CCOC(=O)C1 [MVL, R-mevalonolactone], the “increase in hyaluronic acid levels” value ([1]; 0.13% concentration) was “over 5%”, the hyaluronic acid levels ([1]; 0.13-0.25% by weight, higher concentrations give higher hyaluronic acid levels) was “potently modulates” and the “increase in hyaluronic acid levels” value ([1]; 0.25% concentration) was “over 5%”. For the same compound, the “decrease in gene expression level relative to negative control (MMP1, MMP2, MMP3, MMP7, MMP9, NFATC1, IL1A, IL1B, TNFA, SELE, SELL, EDN1, EDN2, EDN3, PTGS2 (COX2), POMC)” value ([2]; 1.0% by weight in PBS, two 24 h treatments, genes of extracellular matrix degradation, inflammation, skin pigmentation (FIGS. 6-8)) was “at least 10%”, the “decrease in expression of genes related to ECM degradation, inflammation and pigmentation” value [2, 4] was “at least 10%” and the “increase in expression of genes related to epithelial turnover, hyaluronic acid synthesis, barrier function and anti-aging elasticity” value [2, 4] was “at least 10%”. For the same compound, the “conversion of cortisone to cortisol” value ([3]; 0.125-0.5% by weight, higher concentrations give larger decline in cortisol levels) was “potently modulates” and the “reduction of cortisol production” value ([3]; 0.5% concentration in PBS with cortisone) was “over 15%”.
